We go through 26 sequences from PMC7579403, “POTN: A Human Leukocyte Antigen-A2 Immunogenic Peptides Screening Model and Its Applications in Tumor Antigens Prediction” (Frontiers in Immunology, 2020).

Assay [1] concerns CD3+CD8+ T cells from HLA-A2+ healthy donors. The experiment in a line: ICS assay for immunogenicity: IFN-γ production of CD3+CD8+ T cells from peptide-stimulated PBMCs. The class given is cell-based, human. The conditions noted are these: for Immunogenicity: response ratio of each peptide in five donors: percentages of IFN-γ+-secreting CD8+ T cells higher than negative control, PBMCs stimulated 10 μg/mL once-weekly 3 weeks. How it is done: We determined whether the high-binding affinity peptides elicited a T cell response in peripheral blood samples from five HLA-A2^+ healthy donors. The blood samples were obtained from Henan Red Cross Blood Center (Zhengzhou, China) with the approval of the Institutional Ethics Review Board. All research was performed under the approval of the Ethics Committee of Zhengzhou University. An ICS assay was used to quantify IFN-γ production of CD3^+CD8^+ T cells. Peripheral blood mononuclear cells (PBMCs) were stimulated by each peptide (10 μg/mL) once-weekly for 3 weeks according to our previous work ([59]). On day 21, the induced T cells from the PBMCs were used as effector cells, and T2 cells were incubated with the synthesized peptides (50 μg/mL) for 4 h as the stimulator cells. The effector cells (1 × 10^6) and stimulator cells (1 × 10^6) were co-incubated for 3 h, and brefeldin A (2 μg/mL, Sigma-Aldrich, USA) was added to block the release of produced cytokines for another 5 h at 37°C and 5% CO2. The cells were washed and stained with eFlour 710 labeled anti-human CD3 antibody and APC-labeled anti-human CD8 antibody (eBioscience) for 30 min at 4°C before fixation and permeabilization. Permeabilized cells were intracellularly stained with the PE-labeled anti-human IFN-γ antibody (BioLegend, Inc., USA) for 30 min on ice in the dark. Cells were resuspended in buffer for acquisition and analysis using a flow cytometer (FACSCalibur, Becton Dickinson).
Next, we examined the T cell responses of the 13 synthesized peptides with high binding affinity by detecting the percentages of IFN-γ^+ CD8^+ T cells from five HLA-A2^+ healthy donors. A higher percentage of IFN-γ^+ CD8^+ T cells in the total CD8^+ T cell population than that of the negative control indicated an immunogenic peptide. In donor 1, 12 were immunogenic ( Figure 5B ); in donor 2, eight peptides were immunogenic ( Figure 5C ); in donor 3, 10 peptides were immunogenic ( Figure 5D ); in donor 4, six peptides were immunogenic ( Figure 5E ); and in donor 5, 12 peptides were immunogenic ( Figure 5F ). […] In other words, any of the 13 high-affinity peptides could stimulate a T lymphocyte response in at least one donor ( Figures 5G, H ).

For another assay, the target named is T1, HLA-A2 molecule (Homo sapiens, UniProt P04439, D140Y/D185E/D98H/E176V/E277Q/G131W/G231S/I119V/I121R/I166T/I218V/L300P/L318F/N151K/N90K/P208A/P217A/Q86G/Q94H/R138H/R169H/T345S).
T1 construct: The T2 cell line (HLA-A2) was supplied by Professor Yuzhang Wu; endogenous in cells; host or cells: T2 cell line (HLA-A2); exogenous human β2-microglobulin from Merck
The assay can be described thus: T2 binding assay (fluorescence index, FI). The conditions noted are these: T2 cells, peptide 50 μg/mL, human β2-microglobulin 3 µg/mL, 37°C 18 h, anti-HLA-A2 BB7.2 PE-cy7, flow cytometry; class by FI. How it is done:
The T2 binding assay was used to determine the binding affinity of the candidate peptides and HLA-A2 molecule by using a previously described protocol ([27]). The T2 cell line (HLA-A2) was supplied by Professor Yuzhang Wu (Third Military Medical University, Chongqing, China). […] The T2 cells were washed twice and incubated with the anti-human HLA-A2-PE-cy7 antibody (BB7.2, eBioscience, USA) at 4°C for 30 min. The mean fluorescence intensity (FI) of each group was analyzed by flow cytometry (FACSCalibur, Becton-Dickinson, USA). Based on the FI, the binding affinity of the candidate peptides toward HLA-A2 molecule was calculated by FI =a−b/b where a is the mean PE-cy7 FI with the peptide and b is the mean PE-cy7 FI without the peptide.

For a further assay, the system named is T cell response. Also on record: method as in PMID 29720506, PMID 15564450, PMID 18753217, PMID 21883919, PMID 11984506. The conditions noted are these: pairs with only one amino acid different at P3; ref [62]–[66]; cited from earlier work.

“ILDRANQSV [CT-X candidate nonamer predicted by POTN, synthesized]”: in assay [1], the “Immunogenicity: response ratio of each peptide in five donors” value (“Immunogenicity: response ratio” below) is listed as 3/5. Besides, at HLA-A2 molecule, the Binding entry is recorded as “++ (FI ≥ 1.5)”. Take “QLRDVMFYL [literature peptide of a P3 pair]”: the “Immunogenicity (immunogenic / non-immunogenic)” value with T cell response was “non-immunogenic”.

Take “FIDKLVESV [CT-X candidate nonamer predicted by POTN, synthesized]”: in assay [1], the “Immunogenicity: response ratio” value is listed as 5/5. On HLA-A2 molecule, the Binding result was “++ (FI ≥ 1.5)”. In the case of “QLCDVMFYL [literature peptide of a P3 pair]”, in the assay with T cell response, the “Immunogenicity (immunogenic / non-immunogenic)” value is “immunogenic”.

Take “TLDQVLDEV [CT-X candidate nonamer predicted by POTN, synthesized]”: the “Immunogenicity: response ratio” value in assay [1] is 5/5. In addition, the Binding result at HLA-A2 molecule was “++ (FI ≥ 1.5)”. As to “FLAKLNNTV [CT-X candidate nonamer predicted by POTN, synthesized; also in training set]”, at HLA-A2 molecule, the Binding entry was “+ (FI ≥ 0.5 to < 1.5)”. On the same count and under the same terms, as for “KVAKLVHFL [CT-X candidate nonamer predicted by POTN, synthesized]”, the entry is “+ (FI ≥ 0.5 to < 1.5)”; as for “VLSAVTPEL [CT-X candidate nonamer predicted by POTN, synthesized]”, “+ (FI ≥ 0.5 to < 1.5)”. Consider “LMDVQIPTA [CT-X candidate nonamer predicted by POTN, synthesized]”, for which, in assay [1], the “Immunogenicity: response ratio” value is 5/5. On HLA-A2 molecule, the Binding entry is listed as “++ (FI ≥ 1.5)”. As for “TLDEKVAEL [CT-X candidate nonamer predicted by POTN, synthesized]”, the “Immunogenicity: response ratio” value in assay [1] is recorded as 5/5. Moreover, the Binding result on HLA-A2 molecule is “++ (FI ≥ 1.5)”. Regarding “FLAMLKNTV [CT-X candidate nonamer predicted by POTN, synthesized]”, at HLA-A2 molecule, the Binding result is “+ (FI ≥ 0.5 to < 1.5)”. As to “ALDEKVAEL [CT-X candidate nonamer predicted by POTN, synthesized]”, the “Immunogenicity: response ratio” value in assay [1] is on record as 4/5. Also, at HLA-A2 molecule, the Binding result was “++ (FI ≥ 1.5)”. For “YLATADMPA [CT-X candidate nonamer predicted by POTN, synthesized]” the same measures were 3/5 and “++ (FI ≥ 1.5)”. As to “KVAELVHFL [CT-X candidate nonamer predicted by POTN, synthesized]”, on HLA-A2 molecule, the Binding result is reported as “+ (FI ≥ 0.5 to < 1.5)”. For the sequence “ALSTVLPGL [CT-X candidate nonamer predicted by POTN, synthesized]”, the “Immunogenicity: response ratio” value in assay [1] is recorded as 2/5. The Binding entry at HLA-A2 molecule was “++ (FI ≥ 1.5)”. For “ALSVMGVYV [CT-X candidate nonamer predicted by POTN, synthesized]”, the Binding result at HLA-A2 molecule is “+ (FI ≥ 0.5 to < 1.5)”. Still for that read-out and setting: next, “VLSNVLSGL [CT-X candidate nonamer predicted by POTN, synthesized]”: “+ (FI ≥ 0.5 to < 1.5)”. “KLSSIIPSA [CT-X candidate nonamer predicted by POTN, synthesized]”: the “T cell response in donors” value in assay [1] (IFN-γ+ CD8+ T cells, five HLA-A2+ healthy donors) is listed as “only elicited a response in donor 5”. The “Immunogenicity: response ratio” value in assay [1] is 1/5. Also, the Binding result on HLA-A2 molecule is recorded as “++ (FI ≥ 1.5)”.

For “KMAGELIKI [CT-X candidate nonamer predicted by POTN, synthesized]”, in assay [1], the “Immunogenicity: response ratio” value is 4/5. On HLA-A2 molecule, the Binding result is listed as “++ (FI ≥ 1.5)”.

With “FLSKLSSII [CT-X candidate nonamer predicted by POTN, synthesized]”, the Binding entry on HLA-A2 molecule was “- (FI < 0.5)”. Turning to “AMASASPSV [CT-X candidate nonamer predicted by POTN, synthesized]”, the “Immunogenicity: response ratio” value in assay [1] is 3/5. For the same sequence, the Binding entry on HLA-A2 molecule is “++ (FI ≥ 1.5)”. For “VLSTAPPQL [CT-X candidate nonamer predicted by POTN, synthesized]” the same measures were 4/5 and “++ (FI ≥ 1.5)”. Consider “EVKEKHEFL [literature peptide of a P3 pair]”, for which the “Immunogenicity (immunogenic / non-immunogenic)” value in the assay with T cell response is “immunogenic”.

With “EVREKHEFL [literature peptide of a P3 pair]”, the “Immunogenicity (immunogenic / non-immunogenic)” value in the assay on T cell response is “non-immunogenic”. As for “SIDDLSFYV [CT-X candidate nonamer predicted by POTN, synthesized]”, the “Immunogenicity: response ratio” value in assay [1] is reported as 4/5. Also, the Binding result on HLA-A2 molecule is given as “++ (FI ≥ 1.5)”. As for “KVADLIHFL [CT-X candidate nonamer predicted by POTN, synthesized]”, at HLA-A2 molecule, the Binding entry is listed as “+ (FI ≥ 0.5 to < 1.5)”.
